Values joined by “and” are separate entries in the source; they are usually repeats but may differ in a detail not shown here. Identical values can stand only once.
Tests used:
[1] = Molar enthalpy of transition or fusion; conditions: Crystal; DSC

OC1c2ccccc2-c2ccccc21 [9H-fluoren-9-ol]
Conditions | Molar enthalpy of transition or fusion [kJ/mol]
[1] | 24.2

Conditions | vapor or sublimation pressure
337.16 K, Crystal, Calculated from knudsen effusion weight loss | 0.000106 kPa
339.13 K, Crystal, Calculated from knudsen effusion weight loss | 0.000132 kPa
341.1 K, Crystal, Calculated from knudsen effusion weight loss | 0.000163 kPa
343.16 K, Crystal, Calculated from knudsen effusion weight loss | 0.000196 kPa
345.09 K, Crystal, Calculated from knudsen effusion weight loss | 0.000243 kPa
347.09 K, Crystal, Calculated from knudsen effusion weight loss | 0.000307 kPa
349.15 K, Crystal, Calculated from knudsen effusion weight loss | 0.000385 kPa
350.76 K, Crystal, Closed cell (Static) method | 0.00051 kPa
351.11 K, Crystal, Calculated from knudsen effusion weight loss | 0.00047 kPa
352.75 K, Crystal, Closed cell (Static) method | 0.00062 kPa
353.11 K, Crystal, Calculated from knudsen effusion weight loss | 0.000579 kPa
354.71 K, Crystal, Closed cell (Static) method | 0.00075 kPa
355.1 K, Crystal, Calculated from knudsen effusion weight loss | 0.00071 kPa
356.59 K, Crystal, Closed cell (Static) method | 0.00092 kPa
357.09 K, Crystal, Calculated from knudsen effusion weight loss | 0.000884 kPa
358.67 K, Crystal, Closed cell (Static) method | 0.00113 kPa
359.09 K, Crystal, Calculated from knudsen effusion weight loss | 0.001078 kPa
360.98 K, Crystal, Closed cell (Static) method | 0.00139 kPa
362.63 K, Crystal, Closed cell (Static) method | 0.00165 kPa
364.58 K, Crystal, Closed cell (Static) method | 0.00198 kPa
366.55 K, Crystal, Closed cell (Static) method | 0.00238 kPa
368.53 K, Crystal, Closed cell (Static) method | 0.0029 kPa
370.51 K, Crystal, Closed cell (Static) method | 0.00343 kPa
372.48 K, Crystal, Closed cell (Static) method | 0.00418 kPa
372.51 K, Crystal, Closed cell (Static) method | 0.00419 kPa
374.53 K, Crystal, Closed cell (Static) method | 0.00504 kPa
376.49 K, Crystal, Closed cell (Static) method | 0.00599 kPa
378.48 K, Crystal, Closed cell (Static) method | 0.00711 kPa
380.44 K, Crystal, Closed cell (Static) method | 0.00855 kPa
382.39 K, Crystal, Closed cell (Static) method | 0.01001 kPa
384.38 K, Crystal, Closed cell (Static) method | 0.01183 kPa
386.35 K, Crystal, Closed cell (Static) method | 0.01393 kPa
388.32 K, Crystal, Closed cell (Static) method | 0.01662 kPa
390.28 K, Crystal, Closed cell (Static) method | 0.0195 kPa
392.27 K, Crystal, Closed cell (Static) method | 0.02263 kPa
394.22 K, Crystal, Closed cell (Static) method | 0.02684 kPa
396.22 K, Crystal, Closed cell (Static) method | 0.03155 kPa
398.16 K, Crystal, Closed cell (Static) method | 0.03678 kPa
400.1 K, Crystal, Closed cell (Static) method | 0.04277 kPa
402.11 K, Crystal, Closed cell (Static) method | 0.05007 kPa
404.04 K, Crystal, Closed cell (Static) method | 0.05782 kPa
406.06 K, Crystal, Closed cell (Static) method | 0.06738 kPa
407.96 K, Crystal, Closed cell (Static) method | 0.07784 kPa
409.98 K, Liquid, Closed cell (Static) method | 0.1186 kPa
410 K, Crystal, Closed cell (Static) method | 0.09038 kPa
411.89 K, Crystal, Closed cell (Static) method | 0.104 kPa
411.93 K, Liquid, Closed cell (Static) method | 0.1331 kPa
413.86 K, Crystal, Closed cell (Static) method | 0.1211 kPa
413.91 K, Liquid, Closed cell (Static) method | 0.15 kPa
415.85 K, Crystal, Closed cell (Static) method | 0.1377 kPa
415.88 K, Liquid, Closed cell (Static) method | 0.1652 kPa
417.82 K, Crystal, Closed cell (Static) method | 0.1592 kPa
417.86 K, Liquid, Closed cell (Static) method | 0.1822 kPa
419.78 K, Crystal, Closed cell (Static) method | 0.1848 kPa
419.81 K, Liquid, Closed cell (Static) method | 0.2047 kPa
421.73 K, Crystal, Closed cell (Static) method | 0.2084 kPa
421.79 K, Liquid, Closed cell (Static) method | 0.2266 kPa
423.71 K, Crystal, Closed cell (Static) method | 0.2411 kPa
423.75 K, Liquid, Closed cell (Static) method | 0.2538 kPa
425.74 K, Liquid, Closed cell (Static) method | 0.2828 kPa
427.7 K, Liquid, Closed cell (Static) method | 0.3131 kPa and 0.3096 kPa
429.67 K, Liquid, Closed cell (Static) method | 0.3457 kPa
431.58 K, Liquid, Closed cell (Static) method | 0.3815 kPa
431.6 K, Liquid, Closed cell (Static) method | 0.3843 kPa
433.57 K, Liquid, Closed cell (Static) method | 0.4239 kPa
435.51 K, Liquid, Closed cell (Static) method | 0.4605 kPa
435.52 K, Liquid, Closed cell (Static) method | 0.4642 kPa
437.51 K, Liquid, Closed cell (Static) method | 0.5099 kPa
439.47 K, Liquid, Closed cell (Static) method | 0.5625 kPa
441.42 K, Liquid, Closed cell (Static) method | 0.615 kPa

Conditions | Normal melting temperature [°C]
Crystal, DTA | 155.6

Source: the NIST ThermoML archive (doi:10.1021/je300584m)
